Reference: the NIST ThermoML archive (doi:10.1021/je800984q)

Experiments:
[1] = Liquid; for viscosity / mass density: 298.15 K, 101 kPa; for viscosity: Capillary tube (Ostwald / Ubbelohde) method; for mass density: Vibrating tube method
[2] = xn = mol fraction of the nth substance listed; settings: 298.15 K, 101 kPa, Liquid; for viscosity: Capillary tube (Ostwald / Ubbelohde) method; for mass density: Vibrating tube method

CCOC(=O)OCC [diethyl carbonate]
[1]
Settings | mass density [kg/m3] | viscosity [mPa·s]
– | 969 | 0.764

[1]
Settings | vapor or sublimation pressure [kPa]
343.77 K | 13.8
351.67 K | 19.3
355.63 K | 22.7
358.29 K | 26
363.84 K | 31.3
366.98 K | 35.2
369.75 K | 39.1
372.28 K | 42.8
374.61 K | 46.5
377.05 K | 50.5
379.59 K | 55
381.49 K | 58.8
383.37 K | 63.1
383.57 K | 63.5
386.18 K | 68.5
387.61 K | 72.8
390.35 K | 78.5
392.39 K | 84
393.93 K | 88.2
395.72 K | 93.4
398.28 K | 101.5

CCOC(=O)OCC [diethyl carbonate] + C1CC2C3CCC(C3)C2C1
[2], x1 = 1
Settings | mass density [kg/m3] | viscosity [mPa·s]
– | 969 | 0.764

C1CC2C3CCC(C3)C2C1 (stereo not given) [tricyclo[5.2.1.0(2,6)]decane]
[1]
Settings | mass density [kg/m3] | viscosity [mPa·s]
– | 931.4 | 2.739

[1]
Settings | vapor or sublimation pressure [kPa]
393.98 K | 15
396.02 K | 16.6
401.42 K | 20.6
413.88 K | 30.3
418.34 K | 34.8
426.86 K | 44.9
431.22 K | 50.7
434.56 K | 55.8
436.68 K | 59.2
439.31 K | 63.2
441.13 K | 66.6
442.7 K | 69.5
442.81 K | 69.8
444.37 K | 72.9
445.73 K | 75.1
446.13 K | 75.9
450.08 K | 83.9
457.66 K | 101.1

C1CC2C3CCC(C3)C2C1 (stereo not given) [tricyclo[5.2.1.0(2,6)]decane] + CCOC(=O)OCC
[2]
Settings | mass density [kg/m3] | viscosity [mPa·s]
x2 = 0 | 931.4 | 2.739
x2 = 0.1141 | 933.1 | 2.14
x2 = 0.2235 | 935.3 | 1.757
x2 = 0.3303 | 938.1 | 1.496
x2 = 0.4355 | 941.3 | 1.292
x2 = 0.536 | 944.8 | 1.149
x2 = 0.6336 | 948.8 | 1.026
x2 = 0.7288 | 953.4 | 0.938
x2 = 0.8207 | 958.2 | 0.861
x2 = 0.9109 | 963.5 | 0.814
